Reference: ChEMBL document CHEMBL5584334, “Discovery of a Covalent Inhibitor of Pro-Caspase-1 Zymogen Blocking NLRP3 Inflammasome Activation and Pyroptosis” (J Med Chem, 2024)
pIC50: −log10 of the molar value. Activity calls are given as the source filed them. The rule behind the calls is not given here. Residues, ends and D or L forms follow the SMILES beside them. *: point of attachment. Cbz = O=C(OCc1ccccc1)*; CH2F = FC*

Tests used:
Caspase-1 (Homo sapiens) [1] = target: T1, Caspase-1 (Homo sapiens) (UniProt P29466); assay: Inhibition of recombinant human caspase-1 expressed in Escherichia coli BL21 cells assessed as remaining activity at 10 uM using […] as substrate incubated for 30 mins relative to control
T1 sequence (whole entry): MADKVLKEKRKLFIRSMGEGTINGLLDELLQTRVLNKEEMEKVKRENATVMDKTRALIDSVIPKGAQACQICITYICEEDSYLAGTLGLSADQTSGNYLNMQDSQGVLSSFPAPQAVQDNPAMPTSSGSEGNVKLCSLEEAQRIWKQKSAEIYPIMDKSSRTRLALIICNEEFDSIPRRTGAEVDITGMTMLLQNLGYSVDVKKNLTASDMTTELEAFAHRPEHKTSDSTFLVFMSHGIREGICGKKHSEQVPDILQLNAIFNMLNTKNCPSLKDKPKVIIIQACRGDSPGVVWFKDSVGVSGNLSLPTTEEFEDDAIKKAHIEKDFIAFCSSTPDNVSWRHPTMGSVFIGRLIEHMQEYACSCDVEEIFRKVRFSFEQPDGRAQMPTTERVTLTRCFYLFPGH

Caspase-1 (Homo sapiens) [2] = target: T1, Caspase-1 (Homo sapiens); assay: Inhibition of recombinant human caspase-1 expressed in Escherichia coli BL21 cells assessed as remaining activity at 100 uM using […] as substrate incubated for 30 mins relative to control
Caspase-1 = target: T2, Caspase-1 (Homo sapiens, UniProt P29466); assay: Inhibition of recombinant human caspase-1 expressed in Escherichia coli BL21 cells using […] as substrate incubated for 30 mins
T2 sequence (P29466 whole entry): T1 sequence (whole entry)

Caspase-1 (Homo sapiens) [3] = target: T1, Caspase-1 (Homo sapiens); assay: Inhibition of recombinant human caspase-1 expressed in Escherichia coli BL21 cells at 5 to 50 uM using […] as substrate incubated for 30 mins; conditions: dose 5-50 µM
J774.A1 [4] = assay: Inhibition of IL-1beta release in mouse J774.A1 cells at 20 uM pretreated with LPS for 3 hrs followed by compound addition for 30 mins and nigericin stimulation for 45 mins; format: functional, cell-based; conditions: time 75.0 min
J774.A1 [5] = assay: Binding affinity to pro-caspase 1 in mouse J774.A1 cells by Western blotting analysis; format: cell-based
[6] = target: Thioredoxin (Mus musculus) (UniProt P10639); assay: Binding affinity to Txn in mouse J774.A1 cells lysate by mass-spectrophotometric assay; format: subcellular
Thioredoxin (Mus musculus), sequence (P10639 whole entry): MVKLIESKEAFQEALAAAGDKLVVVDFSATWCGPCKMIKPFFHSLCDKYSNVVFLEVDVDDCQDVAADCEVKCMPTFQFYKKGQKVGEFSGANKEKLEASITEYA

[7] = target: NFU1 iron-sulfur cluster scaffold homolog, mitochondrial (Mus musculus) (UniProt Q9QZ23); assay: Binding affinity to Nfu1 in mouse J774.A1 cells lysate by mass-spectrophotometric assay; format: subcellular
NFU1 iron-sulfur cluster scaffold homolog, mitochondrial (Mus musculus), sequence (Q9QZ23 whole entry): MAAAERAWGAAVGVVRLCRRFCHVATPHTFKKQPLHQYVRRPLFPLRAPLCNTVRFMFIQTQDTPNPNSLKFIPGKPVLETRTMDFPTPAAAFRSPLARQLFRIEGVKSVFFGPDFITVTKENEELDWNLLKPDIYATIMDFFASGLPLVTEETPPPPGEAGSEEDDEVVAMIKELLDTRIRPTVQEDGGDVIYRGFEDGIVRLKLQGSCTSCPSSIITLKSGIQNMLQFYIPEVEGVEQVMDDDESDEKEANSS

J774.A1 [8] = assay: Binding affinity to pro-caspase 1 in mouse J774.A1 cell lysates at 1 to 2 uM incubated for 2 hrs in presence of 1'-benzyl 6-(tert-butyl) (1R,4R,6R)-4-isothiocyanato-5'-methoxy-2'-oxospiro[cyclohexane-1,3'-indolin]-2-ene-1',6-dicarboxylate by pull-down assay; format: subcellular; conditions: dose 1-2 µM
Caspase-1 (Homo sapiens) [9] = target: T1, Caspase-1 (Homo sapiens); assay: Inhibition of caspase-1 activity (unknown origin); conditions: dose 50-300 µM
J774.A1 [10] = assay: Binding affinity to pro-caspase 1 in mouse J774.A1 cell lysates at 1 to 2 uM incubated for 2 hrs by pull-down assay; format: subcellular; conditions: dose 1-2 µM
J774.A1 [11] = assay: Binding affinity to pro-caspase 1 in mouse J774.A1 cells at 50 uM pretreated with LPS for 3 hrs and nigericin stimulation for 45 mins followed by compound addition by pull-down assay; format: cell-based
Caspase-7 (Mus musculus) = target: T3, Caspase-7 (Mus musculus) (UniProt P97864); assay: Inhibition of cisplatin induced caspase-7 activation in mouse J774.A1 cells at 1 uM preincubated for 30 mins followed by cisplatin addition and incubated overnight; format: cell-based
T3 sequence (whole entry): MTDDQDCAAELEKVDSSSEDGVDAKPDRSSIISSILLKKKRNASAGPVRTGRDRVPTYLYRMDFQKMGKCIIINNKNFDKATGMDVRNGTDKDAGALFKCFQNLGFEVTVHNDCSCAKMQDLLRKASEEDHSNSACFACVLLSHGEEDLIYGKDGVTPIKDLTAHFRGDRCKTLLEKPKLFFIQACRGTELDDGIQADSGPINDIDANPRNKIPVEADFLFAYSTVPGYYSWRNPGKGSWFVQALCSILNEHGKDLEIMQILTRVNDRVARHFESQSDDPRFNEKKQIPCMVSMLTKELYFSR

Caspase-3 (Mus musculus) = target: T4, Caspase-3 (Mus musculus) (UniProt P70677); assay: Inhibition of cisplatin induced caspase-3 activation in mouse J774.A1 cells at 1 uM preincubated for 30 mins followed by cisplatin addition and incubated overnight; format: cell-based
T4 sequence (whole entry): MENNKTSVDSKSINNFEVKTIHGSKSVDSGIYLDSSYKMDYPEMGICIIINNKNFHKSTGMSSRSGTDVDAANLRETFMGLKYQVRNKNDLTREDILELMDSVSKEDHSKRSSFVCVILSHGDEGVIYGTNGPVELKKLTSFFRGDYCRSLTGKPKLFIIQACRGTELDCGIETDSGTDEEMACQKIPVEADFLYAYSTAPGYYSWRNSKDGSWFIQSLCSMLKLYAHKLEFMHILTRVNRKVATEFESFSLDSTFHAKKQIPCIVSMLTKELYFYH

[12] = target: NACHT, LRR and PYD domains-containing protein 3 (Mus musculus) (UniProt Q8R4B8); assay: Inhibition of NLRP3 inflammasome activation activation in LPS/nigericin stimulated mouse J774.A1 cells assessed as reduction in IL-1beta production pretreated with LPS for 3 hrs prior to compound addition for 30 mins followed by nigericin addition and measured after 45 mins by ELISA; format: cell-based; conditions: dose 0.001-2000 nM, time 75.0 min
NACHT, LRR and PYD domains-containing protein 3 (Mus musculus), sequence (Q8R4B8 whole entry, the tested form may be a part): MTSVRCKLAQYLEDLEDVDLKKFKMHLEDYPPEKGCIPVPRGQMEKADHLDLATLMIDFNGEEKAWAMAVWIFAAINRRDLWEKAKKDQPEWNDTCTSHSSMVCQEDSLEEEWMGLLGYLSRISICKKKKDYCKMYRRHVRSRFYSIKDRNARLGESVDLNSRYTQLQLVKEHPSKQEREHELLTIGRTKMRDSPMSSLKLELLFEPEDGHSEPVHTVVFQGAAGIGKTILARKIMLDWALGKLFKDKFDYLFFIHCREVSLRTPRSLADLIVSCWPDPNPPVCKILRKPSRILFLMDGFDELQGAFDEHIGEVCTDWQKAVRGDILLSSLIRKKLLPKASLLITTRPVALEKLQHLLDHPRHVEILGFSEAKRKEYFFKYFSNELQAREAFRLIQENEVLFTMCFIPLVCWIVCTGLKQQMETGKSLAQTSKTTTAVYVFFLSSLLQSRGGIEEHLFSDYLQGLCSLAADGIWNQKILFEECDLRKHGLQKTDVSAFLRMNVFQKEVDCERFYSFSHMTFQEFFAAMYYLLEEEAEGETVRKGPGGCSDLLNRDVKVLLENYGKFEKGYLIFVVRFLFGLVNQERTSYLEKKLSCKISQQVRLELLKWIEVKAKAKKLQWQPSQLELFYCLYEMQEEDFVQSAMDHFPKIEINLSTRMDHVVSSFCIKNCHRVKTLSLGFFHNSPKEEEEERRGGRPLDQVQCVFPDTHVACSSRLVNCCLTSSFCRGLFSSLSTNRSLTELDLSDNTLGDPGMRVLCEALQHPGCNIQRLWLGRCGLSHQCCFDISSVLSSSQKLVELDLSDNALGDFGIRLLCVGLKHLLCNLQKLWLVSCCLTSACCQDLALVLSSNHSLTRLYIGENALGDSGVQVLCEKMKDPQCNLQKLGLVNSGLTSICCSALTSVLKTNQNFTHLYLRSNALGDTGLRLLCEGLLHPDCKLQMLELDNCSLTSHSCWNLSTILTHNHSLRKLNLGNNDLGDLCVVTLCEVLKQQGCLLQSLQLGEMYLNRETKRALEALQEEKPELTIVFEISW

Structure (SMILES) | Activity (Caspase-1 (Homo sapiens) [1]) [%] | Activity (Caspase-1 (Homo sapiens) [2]) [%] | pIC50 (Caspase-1) | also measured
CC(C)(C)OC(=O)[C@@H]1C[C@@H](N=C=S)C=C[C@@]12C(=O)N(C(=O)OCC1c3ccccc3-c3ccccc31)c1ccccc12 | 90 | 24 | 4.12 | –
CC(C)(C)OC(=O)[C@@H]1C[C@@H](N=C=S)C=C[C@@]12C(=O)N(C(=O)OCc1ccccc1)c1c(F)cccc12 | 85 | 13 | 4.10 | –
Cc1ccc2c(c1)[C@]1(C=C[C@H](N=C=S)C[C@H]1C(=O)OC(C)(C)C)C(=O)N2C(=O)OCc1ccccc1 | 68 | 15 | 4.55 | –
COc1ccc2c(c1)[C@@]1(C(=O)N2C(=O)OCc2ccccc2)[C@@H](SC#N)C=CC[C@H]1C(=O)OC(C)(C)C | – | – | – | inhibition (active/not active) (Caspase-1 (Homo sapiens) [3]): inactive
COc1ccc2c(c1)[C@]1(C=C[C@H](N=C=S)C[C@H]1C(=O)OC(C)(C)C)C(=O)N2 | 75 | 10 | 4.39 | –
CC(C)(C)OC(=O)[C@@H]1C[C@@H](N=C=S)C=C[C@@]12C(=O)N(C(=O)OCc1ccccc1)c1cc(F)c(F)cc12 | 73 | 21 | 4.36 | –
CC(C)(C)OC(=O)[C@@H]1C[C@@H](N=C=S)C=C[C@@]12C(=O)N(C(=O)OCc1ccccc1)c1ccc(I)cc12 | 88 | 61 | < 4.00 | –
CC(C)OC(=O)[C@@H]1C[C@@H](N=C=S)C=C[C@@]12C(=O)N(C(=O)OCc1ccccc1)c1ccccc12 | 104 | 19 | 4.14 | –
CC(C)(C)OC(=O)[C@@H]1C[C@@H](N=C=S)C=C[C@@]12C(=O)N(C(=O)OCc1ccccc1)c1ccccc12 | 76 | 15 | 4.43 | –
CC1=C[C@@]2(C(=O)N(C(=O)OCc3ccccc3)c3ccccc32)[C@H](C(=O)OC(C)(C)C)C[C@@]1(C)N=C=S | 103 | 91 | < 4.00 | –
CC(C)(C)OC(=O)[C@@H]1C[C@@H](N=C=S)C=C[C@@]12C(=O)N(C(=O)OCc1ccccc1)c1ccc(Br)cc12 | 92 | 31 | 4.05 | –
COc1ccc2c(c1)[C@]1(C=C[C@@H](N=C=S)C[C@H]1C(=O)OC(C)(C)C)C(=O)N2C(=O)OCc1ccccc1 | – | – | – | inhibition (active/not active) (Caspase-1 (Homo sapiens) [3]): Active
O=C(c1ccccc1)[C@@H]1C[C@@H](N=C=S)C=C[C@@]12C(=O)N(C(=O)OCc1ccccc1)c1ccccc12 | 56 | 15 | 4.58 | –
CC(C)(C)OC(=O)[C@@H]1C[C@@H](N=C=S)C=C[C@@]12C(=O)N(C(=O)OCc1ccccc1)c1cc(Br)ccc12 | 71 | 20 | 4.81 | –
CC(C)(C)OC(=O)[C@@H]1C[C@@H](N=C=S)C=C[C@@]12C(=O)Nc1ccc(NC(=O)CCCC[C@@H]3SC[C@@H]4NC(=O)N[C@@H]43)cc12 | – | – | – | inhibition (J774.A1 [4]): Active; Activity (J774.A1 [5]): Active; Activity [6]: Active; Activity [7]: Active; Activity (J774.A1 [8]): inactive; inhibition (Caspase-1 (Homo sapiens) [9]): Dose-Dependent Effect; Activity (J774.A1 [10]): Active; Activity (J774.A1 [11]): Active
COC(=O)C[C@H](NC(=O)[C@H](C)NC(=O)[C@@H](NC(=O)OCc1ccccc1)C(C)C)C(=O)CF (Cbz-Val-Ala-Asp(OMe)-CH2F) | – | – | – | inhibition (Caspase-7 (Mus musculus)): Active; inhibition (Caspase-3 (Mus musculus)): Active

Structure (SMILES) | Activity (Caspase-1 (Homo sapiens) [1]) [%] | Activity (Caspase-1 (Homo sapiens) [2]) [%] | pIC50 (Caspase-1) | also measured
CC(C)(C)OC(=O)[C@@H]1C[C@@H](NC(=S)NN)C=C[C@@]12C(=O)N(C(=O)OCc1ccccc1)c1ccccc12 | 107 | 84 | < 4.00 | –
COC(=O)[C@@H]1C[C@@H](N=C=S)C=C[C@@]12C(=O)N(C(=O)OCc1ccccc1)c1ccccc12 | 78 | 9 | 4.53 | –
CC(C)(C)OC(=O)[C@@H]1CC=C[C@@H](SC#N)[C@@]12C(=O)Nc1ccc(NC(=O)CCCC[C@@H]3SC[C@@H]4NC(=O)N[C@@H]43)cc12 | – | – | – | inhibition (Caspase-1 (Homo sapiens) [9]): inactive
CC(C)(C)OC(=O)[C@@H]1C[C@@H](N=C=S)C=C[C@@]12C(=O)N(C(=O)OCc1ccccc1)c1ccc(F)cc12 | 81 | 17 | 4.09 | –
S=C=NCCc1ccccc1 | – | – | – | inhibition (active/not active) (Caspase-1 (Homo sapiens) [3]): inactive; inhibition [12]: Dose-Dependent Effect
CC(C)(C)OC(=O)[C@@H]1C[C@@H](N=C=S)C=C[C@@]12C(=O)N(C(=O)OCc1ccccc1)c1ccc(Cl)cc12 | 77 | 24 | 4.07 | –
COc1ccc2c(c1)[C@@]1(C=C[C@@H](N=C=S)C[C@@H]1C(=O)OC(C)(C)C)C(=O)N2C(=O)OCc1ccccc1 | – | – | – | inhibition (active/not active) (Caspase-1 (Homo sapiens) [3]): Active
O=C(OCc1ccccc1)[C@@H]1C[C@@H](N=C=S)C=C[C@@]12C(=O)N(C(=O)OCc1ccccc1)c1ccccc12 | 104 | 42 | 4.07 | –
C[S+]([O-])CCCCN=C=S (stereo unspecified) | – | – | – | inhibition (active/not active) (Caspase-1 (Homo sapiens) [3]): inactive; inhibition [12]: Dose-Dependent Effect
CC(C)(C)OC(=O)[C@@H]1C[C@@H](NC(=S)Nc2ccccc2)C=C[C@@]12C(=O)N(C(=O)OCc1ccccc1)c1ccccc12 | 112 | 84 | < 4.00 | –
CCC1=C[C@@]2(C(=O)N(C(=O)OCc3ccccc3)c3ccccc32)[C@H](C(=O)OC(C)(C)C)C[C@@]1(CC)N=C=S | 108 | 90 | < 4.00 | –
O=C(Oc1ccccc1)[C@@H]1C[C@@H](N=C=S)C=C[C@@]12C(=O)N(C(=O)OCc1ccccc1)c1ccccc12 | 101 | 56 | < 4.00 | –
COC(=O)N1C(=O)[C@@]2(C=C[C@H](N=C=S)C[C@H]2C(=O)OC(C)(C)C)c2ccccc21 | 68 | 34 | 4.24 | –
S=C=NCc1ccccc1 | – | – | – | inhibition (active/not active) (Caspase-1 (Homo sapiens) [3]): Active; inhibition [12]: Dose-Dependent Effect
CC1=C[C@@]2(C(=O)N(C(=O)OCc3ccccc3)c3ccccc32)[C@H](C(=O)OC(C)(C)C)C[C@H]1N=C=S | 93 | 84 | < 4.00 | –
